# Laboratory results as given in patent publication US9315492B2, “Heterocyclic group contained amino-methanol derivative, and salt, synthetic method and use thereof” (BEIJING FORELAND BIOPHARMA CO., LTD., priority 2012, dated 2016).
# pEC50, pIC50: −log10 of the molar value.
# Key:
# [1] = test system: experimental rheumatoid arthritis (bovine collagen type II immunized mice); test: Experimental rheumatoid arthritis; format: in vivo; conditions: DBA/1JLacJ mice, 5 and 30 mg/kg/d intragastric, 30 days
# S1P1 [2] = molecular target: T1, S1P1 (Homo sapiens (Human), UniProt P21453); test: S1P1 GTPγS binding assay; format: biochemical; conditions: [35S]-GTPγS, membranes with high-expressed S1P1 (CHO-S1P1)
# T1 sequence (P21453 whole entry): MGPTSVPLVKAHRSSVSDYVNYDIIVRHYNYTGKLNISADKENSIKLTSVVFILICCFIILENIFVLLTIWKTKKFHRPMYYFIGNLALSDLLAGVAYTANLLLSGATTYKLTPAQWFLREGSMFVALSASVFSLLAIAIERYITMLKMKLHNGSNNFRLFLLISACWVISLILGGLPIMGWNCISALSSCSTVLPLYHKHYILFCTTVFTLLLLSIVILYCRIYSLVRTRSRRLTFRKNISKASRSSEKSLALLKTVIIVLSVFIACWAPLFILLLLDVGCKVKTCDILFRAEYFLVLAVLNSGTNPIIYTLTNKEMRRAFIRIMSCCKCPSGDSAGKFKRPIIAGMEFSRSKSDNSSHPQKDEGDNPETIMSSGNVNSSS
# Procedure: 1. S1P1GTPγS Binding Assay
# 2) T-75 cell culture plate; 150 mm cell culture dish
# 3) DMEM cell culture fluid; 10% (v/v) fetal bovine serum; 100 U/ml penicillin-100 μg/ml streptomycin; 2 mM […], 1 mg/ml G-418
# 4) Cell Lysis Buffer: HEPES 20 mM (pH 7.4), EDTA 10 mM
# 5) Stock solution: HEPES 20 mM, EDTA 0.1 mM
# 6) Binding Buffer; HEPES 20 mM (pH 7.4), NaCl 100 mM, MgCl2 5 mM, GDP 1 μM, BSA 0.1% (w/v), DMSO 2.5% (v/v),
# 7) Washing solution: NaH2PO4 10 mM (pH 7.4)
# The test compounds were dissolved in DMSO and prepared as a concentration of 20 mM.
# The concentrations of the compounds were detected ranging from 0.3 nM to 20 μM.
# Control group: […] SIP and SEW2871 were used as positive control and were purchased from Tocris company, and the binding buffet was as negative control.
# Test method: wetting membranes by saponin solution, and preparing [^35S]-GTPγS in binding solution (4×). The test compound was prepared as 4× of the final concentration which was then performed serial 3× dilution in 100% DMSO. Membranes with high-expressed S1P1 were collected in 5 ml binding buffer, and 50 μL was added to 96-well (containing 5 μg membrane protein with high-expressed S1P1). 25 μL, test compound was added in each well. The compound was incubated with the membranes for 30 min at room temperature, then 25 μL [^35S]-GTPγS was added, and the experiment was initiated. The 96-well detection plate was incubated for 1 hour at room temperature, filtered by filtermat B, and washed with washing solution for three times. After the plate was dried for 1 h at 50° C., 8 ml scintillator solution was added and counted using scintillation counter.
# Result Analysis and Determination of 50% Inhibitory Concentration (IC50):
# The IC50 value was calculated by using (Prism 4) software, and 50% inhibitory concentrations were obtained.
# S1P1 [3] = molecular target: T1, S1P1; test: S1P1 β-arrestin assay (PathHunter CHO-K1 EDG1); format: cell-based; conditions: CHO-EDG-1 cells
# Procedure: 2.1 Experimental Materials: Path hunter express CHO-K1 EDG1 β-arrestin GPCR Assay was purchased from DiscoveRx, containing CHO-EDG-1 cells, buffers, substrate-1, substrate-2, cell culture fluid, 96-well cell culture plate.
# 1) The test compounds were dissolved in DMSO and prepared as a concentration of 20 mM.
# 2) The concentrations of the test compounds were detected ranging from […] to 20 μM.
# 4) Assay procedures: OCC culture solution was preheated in water tank at 37° C. Cells were taken out from liquor nitrogen tank, left on the dry-ice, and dissolved in water tank at 37° C. 0.5 ml OCC culture solution was added and blended slowly. The cells were diluted in 11.5 mL OCC culture solution, and 100 μL cell suspension (containing 8333 cells) was added to each well of the 96-well plate. The 96-well plate was incubated for 8 hours under 5% CO2 at 37° C., and 10 μL test compound dissolved in DMSO was added in; 10 μL DMSO was used as negative control. After the plate was incubated for 90 min at 37° C., 55 μL detection solution was added to each well. Then the results were read out by EnVision after the cell plate was incubated for 90 min at room temperature.
# The EC50 Value was Calculated by Using Prism 4 Software
# [4] = test system: peripheral blood lymphocyte; test: Effects on peripheral blood lymphocyte in mice; format: in vivo, Balb/c mice; conditions: intragastric; for toxicity: dose up to 30 mg/kg/d; for toxicity / behavior and weight of mice, pre- versus post-administration: four days; for numbers of peripheral blood lymphocyte reduced compared to pre-administration: once a day for continuous four days
# Procedure: 3. Effects of the Compounds in Example-21 and Example-22 on Peripheral Blood Lymphocyte in Mice
# 3.1 Experimental Materials:
# 1) 15% EDTA, PBS, EP tubes, 15 ml centrifuge tube, capillary tube, pipette tip were all purchased from Shanghai biological technology co., Ltd. Hemocyte analysis reagents were purchased from Shanghai Sysmex Company.
# 2) 35 Balb/c mice (female, 20-22 g), supplied by laboratory animal center of Jilin University.
# 3) Automated Hematology Analyzer (pocH-100 iV Diff) was purchased from Sysmex Company, Kobe, Japan.
# 1) The stock solutions of the compounds obtained in Example-21 and Example-22 were prepared with normal saline, and the concentrations are 2 mg/ml and 20 mg/ml, respectively.
# 2) The mice were divided into […], i.e., control group, low-dose experimental group, and high-dose experimental group. They were weighed and labeled well.
# 3) Before administration, supraorbital venous blood was collected with 20 μl/mouse which was added to anticoagulant tube containing EDTA, and nosed thoroughly. The numbers of lymphocytes were analyzed by pocH-100.
# 4) The control group was given normal saline: low-dose experimental groups were given the compounds obtained in Example-21 and Example-22 (5 mg/kg/d), high-dose experimental groups were given the compounds obtained in Example-21 and Example-22 (30 mg/kg/d), with liquid amount of 500 μl/mouse, by intragastric administration. Administration was performed for continuous four days, once a day. After 3.5 hours of the first and fourth administration, blood was collected respectively, and changes in the numbers of lymphocytes were analyzed by pocH-100.
# [5] = test system: autoimmune multiple sclerosis (PLP139-151 immunized mice); test: Experimental autoimmune multiple sclerosis; format: in vivo; conditions: SJL/J mice, 5 and 30 mg/kg/d intragastric, 30 days
# [6] = test system: peripheral blood lymphocyte; conditions: general statement for FTY720; cited from earlier work
Compound,effect on induction and development of experimental rheumatoid arthritis [1],effect on induction and development of experimental rheumatoid arthritis ([1]; listed as Example-22),pIC50 (S1P1 [2]),pEC50 (S1P1 [3]),toxicity [4],"behavior and weight of mice, pre- versus post-administration [4]",numbers of peripheral blood lymphocyte reduced compared to pre-administration [4],effect on induction and development of autoimmune multiple sclerosis [5],effect on induction and development of autoimmune multiple sclerosis ([5]; listed as Example-22),effect on induction and development of experimental rheumatoid arthritis ([1]; listed as Example-21),effect on induction and development of autoimmune multiple sclerosis ([5]; listed as Example-21),number of peripheral blood lymphocytes decreased [6]
"2-(7-amino-5,6,7,8-tetrahydro-7-naphthalenemethanol)-5-(3-methyl-4-isopropoxy)-1,3,4-oxdiazole [Example 22]",obviously inhibiting,remarkable inhibitory effects,8.52,8.10,no toxicity effects,no differences,78%,obviously inhibiting,remarkable inhibitory effects,–,–,–
"2-(7-benzylamino-5,6,7,8-tetrahydro-7-naphthalenemethanol)-5-(3-methyl-4-isopropoxy)-1,3,4-oxdiazole [Example 21]",obviously inhibiting,–,6.75,–,no toxicity effects,no differences,92%,obviously inhibiting,–,remarkable inhibitory effects,remarkable inhibitory effects,–
CCCCCCCCc1ccc(CCC(N)(CO)CO)cc1 [FTY720],–,–,–,–,–,–,–,–,–,–,–,70-80%
